The assay has as its target T1, PARP1 (Homo sapiens, UniProt P09874).
T1 construct: purchased BPS Bioscience
Nature of the assay: PARP1 biochemical assay (BPS Bioscience kit, chemiluminescent). As to conditions: histone-coated plate, biotinylated NAD+, 60 min at 25° C., luminescence; read-out: PARP 1 inhibition IC50. On the procedure: Example 16: PARP1 Biochemical Assay
The assay was performed using BPS Bioscience kit. The 96-well strip plate was coated with 50 μl of histone mixture and incubated at 4° C. overnight. The next day, the wells were blocked by adding 100 μl of blocking buffer. The plate was washed and 25 μl of appropriate concentration of PARP1 (25-75 ng/well) was added in all of the Test and Positive control wells. In the Negative control wells, the enzyme was replaced with 25 μl of water. 5 μl each of 10× PARP assay buffer and activated DNA was added in all the wells (Test, Positive and Negative control wells). 10× concentration of the test compounds were prepared and 5 μl test compounds were added to the respective wells. The reaction volume was made up to 45 μl by adding water to all of the wells. 5 μl of 10× PARP assay mixture containing biotinilated NAD^+ was added in each well and the plate was incubated at ambient temperature (25° C.) for 60 min. After washing the plate 50 μl of Streptavidin-HRP was added in each well, the plate was incubated at RT for 30 min. The plate was washed and the luminescence was read in PHERAStar plate reader after adding 100 μl of chemiluminescent substrate.
PARP inhibition was calculated using the following formula:
% PARP inhibition=100−[(RLU test compound treated sample−RLU negative control)/(RLU Positive control−RLU negative control)×100]
IC50 values were calculated by plotting % inhibition against the respective concentrations of test compounds using GraphPad Prism 5.
T1 sequence (P09874 whole entry): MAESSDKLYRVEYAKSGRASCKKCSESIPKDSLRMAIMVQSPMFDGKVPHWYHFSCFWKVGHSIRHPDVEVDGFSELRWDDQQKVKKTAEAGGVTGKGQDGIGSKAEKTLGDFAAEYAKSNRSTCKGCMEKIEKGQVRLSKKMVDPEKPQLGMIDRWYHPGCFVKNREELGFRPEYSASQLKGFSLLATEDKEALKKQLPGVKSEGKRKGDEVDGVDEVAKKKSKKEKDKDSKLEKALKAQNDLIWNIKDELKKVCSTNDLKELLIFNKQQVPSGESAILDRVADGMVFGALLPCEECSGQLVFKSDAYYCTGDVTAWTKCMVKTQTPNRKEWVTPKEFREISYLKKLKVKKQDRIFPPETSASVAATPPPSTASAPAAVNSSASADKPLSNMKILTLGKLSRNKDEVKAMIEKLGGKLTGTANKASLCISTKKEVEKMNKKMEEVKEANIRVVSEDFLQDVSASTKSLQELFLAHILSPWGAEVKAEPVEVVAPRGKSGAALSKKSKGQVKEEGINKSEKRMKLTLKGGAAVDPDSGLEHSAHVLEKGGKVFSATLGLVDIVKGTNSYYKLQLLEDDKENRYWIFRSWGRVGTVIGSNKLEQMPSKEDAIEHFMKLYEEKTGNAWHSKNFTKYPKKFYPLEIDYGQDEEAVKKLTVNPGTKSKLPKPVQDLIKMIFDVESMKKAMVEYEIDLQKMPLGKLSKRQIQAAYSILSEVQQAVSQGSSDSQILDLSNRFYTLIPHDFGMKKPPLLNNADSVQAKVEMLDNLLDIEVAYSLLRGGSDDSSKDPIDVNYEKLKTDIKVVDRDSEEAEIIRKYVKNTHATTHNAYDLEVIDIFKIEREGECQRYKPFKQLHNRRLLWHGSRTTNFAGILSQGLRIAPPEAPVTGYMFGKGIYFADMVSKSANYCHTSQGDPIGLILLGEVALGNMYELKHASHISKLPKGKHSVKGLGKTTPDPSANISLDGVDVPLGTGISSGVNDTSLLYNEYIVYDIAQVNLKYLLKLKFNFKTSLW
The term IC50 denotes the midpoint of a concentration-inhibition curve. Turning to `C[C@@H]1CN(c2ccc(C#N)cc2)CCN1[C@@H]1C=C(c2cc3ncccc3c(=O)[nH]2)CC1` (racemic) [Compound 15, 4-((R)-3-methyl-4-((S/R)-3-(5-oxo-5,6-dihydro-1,6-naphthyridin-7-yl)cyclopent-2-en-1-yl)piperazin-1-yl)benzonitrile], the IC50 is 5.1 to 50 nM.

With `N#Cc1ccc(N2CCN([C@@H]3CC[C@H](c4cc5ncccc5c(=O)[nH]4)C3)CC2)cc1` (single isomer, unassigned) [Compound 11], the IC50 is 0.5 to 5 nM.

`N#Cc1ccc(N2CCN([C@@H]3CC[C@@H](c4cc5ncccc5c(=O)[nH]4)C3)CC2)cc1` (single isomer, unassigned) [Compound 12]: the IC50 was in the range of 5.1 to 50 nM.

As for `C[C@@H]1CN(c2ccc(C#N)cc2)CCN1C1C=C(c2cc3ncccc3c(=O)[nH]2)CC1` (single isomer, unassigned) [Compound 14], the IC50 is 0.5 to 5 nM.

Turning to `N#Cc1ccc(N2C[C@@H]3C[C@H]2CN3C2C=C(c3cc4ncccc4c(=O)[nH]3)CC2)cc1` (single isomer, unassigned) [Compound 16], the IC50 fell in the range of 5.1 to 50 nM.

On to `N#Cc1ccc(N2CCN([C@H]3C=C(c4cc5ncccc5c(=O)[nH]4)CC3)CC2)cc1` [Compound 1, (R)-4-(4-(3-(5-oxo-5,6-dihydro-1,6-naphthyridin-7-yl)cyclopent-2-en-1-yl)piperazin-1-yl)benzonitrile], for which the IC50 fell in the range of 0.5 to 5 nM.

With `N#Cc1ccc(N2CCN([C@H]3C=C(c4cc5ncc(F)cc5c(=O)[nH]4)CC3)CC2)cc1` [Compound 2, (R)-4-(4-(3-(3-fluoro-5-oxo-5,6-dihydro-1,6-naphthyridin-7-yl)cyclopent-2-en-1-yl)piperazin-1-yl)benzonitrile], the IC50 lay within 0.5 to 5 nM.

Turning to `Cc1ccccc1N1CCN([C@H]2C=C(c3cc4ncccc4c(=O)[nH]3)CC2)CC1` [Compound 3, (R)-7-(3-(4-(o-tolyl)piperazin-1-yl)cyclopent-1-en-1-yl)-1,6-naphthyridin-5(6H)-one], the IC50 lay within 0.5 to 5 nM.

For the molecule `N#Cc1ccc(N2CCN([C@@H]3C=C(c4cc5ncccc5c(=O)[nH]4)CC3)CC2)cc1` [Compound 4, (S)-4-(4-(3-(5-oxo-5,6-dihydro-1,6-naphthyridin-7-yl)cyclopent-2-en-1-yl)piperazin-1-yl)benzonitrile], the IC50 fell in the range of 5.1 to 50 nM.

As to `Cc1ccc2c(=O)[nH]c(C3=C[C@H](N4CCN(c5ccc(C#N)cc5)CC4)CC3)cc2n1` [Compound 6, (R)-4-(4-(3-(2-methyl-5-oxo-5,6-dihydro-1,6-naphthyridin-7-yl)cyclopent-2-en-1-yl)piperazin-1-yl)benzonitrile], the IC50 lay in the range of 0.5 to 5 nM.

`N#Cc1ccc(N2CCN([C@H]3C=C(c4cc5ncc(N)cc5c(=O)[nH]4)CC3)CC2)cc1` [Compound 7, (R)-4-(4-(3-(3-amino-5-oxo-5,6-dihydro-1,6-naphthyridin-7-yl)cyclopent-2-en-1-yl)piperazin-1-yl)benzonitrile]: the IC50 is 0.5 to 5 nM.

With `N#Cc1ccc(N2CCN([C@H]3C=C(c4[nH]c(=O)c5cccnc5c4[N+](=O)[O-])CC3)CC2)cc1` [Compound 8, (R)-4-(4-(3-(8-nitro-5-oxo-5,6-dihydro-1,6-naphthyridin-7-yl)cyclopent-2-en-1-yl)piperazin-1-yl)benzonitrile], the IC50 lay in the range of 0.5 to 5 nM.

`Cc1c(C2=C[C@H](N3CCN(c4ccc(C#N)cc4)CC3)CC2)[nH]c(=O)c2cccnc12` [Compound 9, (R)-4-(4-(3-(8-methyl-5-oxo-5,6-dihydro-1,6-naphthyridin-7-yl)cyclopent-2-en-1-yl)piperazin-1-yl)benzonitrile]: the IC50 was in the range of 0.5 to 5 nM.

On to `Cc1c(C2=C[C@@H](N3CCN(c4ccc(C#N)cc4)CC3)CC2)[nH]c(=O)c2cccnc12` [Compound 10, (S)-4-(4-(3-(8-methyl-5-oxo-5,6-dihydro-1,6-naphthyridin-7-yl)cyclopent-2-en-1-yl)piperazin-1-yl)benzonitrile], for which the IC50 lay within 0.5 to 5 nM.

Turning to `N#Cc1ccc(N2CCN([C@H]3C=C(c4cc5ncccc5c(=O)[nH]4)CC3)CC2=O)cc1` [Compound 13, (R)-4-(2-oxo-4-(3-(5-oxo-5,6-dihydro-1,6-naphthyridin-7-yl)cyclopent-2-en-1-yl)piperazin-1-yl)benzonitrile], the IC50 lay within 5.1 to 50 nM.

Consider `CNC(=O)c1ccc(N2CCN([C@H]3C=C(c4cc5ncccc5c(=O)[nH]4)CC3)CC2)cc1` [Compound 18, (R)—N-methyl-4-(4-(3-(5-oxo-5,6-dihydro-1,6-naphthyridin-7-yl)cyclopent-2-en-1-yl)piperazin-1-yl)benzamide], for which the IC50 was 0.5 to 5 nM.

With `NC(=O)c1ccc(N2CCN([C@H]3C=C(c4cc5ncccc5c(=O)[nH]4)CC3)CC2)cc1` [Compound 19, (R)-4-(4-(3-(5-oxo-5,6-dihydro-1,6-naphthyridin-7-yl)cyclopent-2-en-1-yl)piperazin-1-yl)benzamide], the IC50 was in the range of 0.5 to 5 nM.

`CCOC(=O)c1ccc(N2CCN([C@H]3C=C(c4cc5ncccc5c(=O)[nH]4)CC3)CC2)cc1` [Compound 20, Ethyl (R)-4-(4-(3-(5-oxo-5,6-dihydro-1,6-naphthyridin-7-yl)cyclopent-2-en-1-yl)piperazin-1-yl)benzoate]: the IC50 lay within 0.5 to 5 nM.

Take `O=c1[nH]c(C2=C[C@H](N3CCN(c4ccccc4)CC3)CC2)cc2ncccc12` [Compound 21, (R)-7-(3-(4-phenylpiperazin-1-yl)cyclopent-1-en-1-yl)-1,6-naphthyridin-5(6H)-one]: the IC50 is 0.5 to 5 nM.

For `O=c1[nH]c(C2=C[C@H](N3CCN(c4ccc(F)cc4)CC3)CC2)cc2ncccc12` [Compound 22, (R)-7-(3-(4-(4-fluorophenyl)piperazin-1-yl)cyclopent-1-en-1-yl)-1,6-naphthyridin-5(6H)-one], the IC50 was in the range of 0.5 to 5 nM.

Consider `N#Cc1ccc(N2CCN([C@H]3C=C(c4cc5ncccc5c(=O)[nH]4)CC3)CC2)c(F)c1` [Compound 23, (R)-3-fluoro-4-(4-(3-(5-oxo-5,6-dihydro-1,6-naphthyridin-7-yl)cyclopent-2-en-1-yl)piperazin-1-yl)benzonitrile], for which the IC50 lay in the range of 0.5 to 5 nM.

Consider `O=c1[nH]c(C2=C[C@H](N3CCN(c4ccc(Cl)cc4)CC3)CC2)cc2ncccc12` [Compound 24, (R)-7-(3-(4-(4-chlorophenyl)piperazin-1-yl)cyclopent-1-en-1-yl)-1,6-naphthyridin-5(6H)-one], for which the IC50 lay within 0.5 to 5 nM.

Consider `COc1ccc(N2CCN([C@H]3C=C(c4cc5ncccc5c(=O)[nH]4)CC3)CC2)cc1` [Compound 25, (R)-7-(3-(4-(4-methoxyphenyl)piperazin-1-yl)cyclopent-1-en-1-yl)-1,6-naphthyridin-5(6H)-one], for which the IC50 fell in the range of 0.5 to 5 nM.

Consider `Cc1ccc(N2CCN([C@H]3C=C(c4cc5ncccc5c(=O)[nH]4)CC3)CC2)cc1` [Compound 26, (R)-7-(3-(4-(p-tolyl)piperazin-1-yl)cyclopent-1-en-1-yl)-1,6-naphthyridin-5(6H)-one], for which the IC50 was 0.5 to 5 nM.

With `CNc1ccc(N2CCN([C@H]3C=C(c4cc5ncccc5c(=O)[nH]4)CC3)CC2)cc1` [Compound 27, (R)-7-(3-(4-(4-(methylamino)phenyl)piperazin-1-yl)cyclopent-1-en-1-yl)-1,6-naphthyridin-5(6H)-one], the IC50 lay in the range of 5.1 to 50 nM.

For the molecule `CC(=O)c1ccc(N2CCN([C@H]3C=C(c4cc5ncccc5c(=O)[nH]4)CC3)CC2)cc1` [Compound 28, (R)-7-(3-(4-(4-acetylphenyl)piperazin-1-yl)cyclopent-1-en-1-yl)-1,6-naphthyridin-5(6H)-one], the IC50 lay in the range of 0.5 to 5 nM.

As for `O=C1CCc2cc(N3CCN([C@H]4C=C(c5cc6ncccc6c(=O)[nH]5)CC4)CC3)ccc21` [Compound 29, (R)-7-(3-(4-(1-oxo-2,3-dihydro-1H-inden-5-yl)piperazin-1-yl)cyclopent-1-en-1-yl)-1,6-naphthyridin-5(6H)-one], the IC50 was 0.5 to 5 nM.

On to `O=c1[nH]c(C2=C[C@H](N3CCN(c4ccc5c(c4)CCC5)CC3)CC2)cc2ncccc12` [Compound 30, (R)-7-(3-(4-(2,3-dihydro-1H-inden-5-yl)piperazin-1-yl)cyclopent-1-en-1-yl)-1,6-naphthyridin-5(6H)-one], for which the IC50 lay within 0.5 to 5 nM.

Turning to `O=C1OCc2cc(N3CCN([C@H]4C=C(c5cc6ncccc6c(=O)[nH]5)CC4)CC3)ccc21` [Compound 31, (R)-7-(3-(4-(1-oxo-1,3-dihydroisobenzofuran-5-yl)piperazin-1-yl)cyclopent-1-en-1-yl)-1,6-naphthyridin-5(6H)-one], the IC50 is 0.5 to 5 nM.

Regarding `O=C1NCc2cc(N3CCN([C@H]4C=C(c5cc6ncccc6c(=O)[nH]5)CC4)CC3)ccc21` [Compound 32, (R)-7-(3-(4-(1-oxoisoindolin-5-yl)piperazin-1-yl)cyclopent-1-en-1-yl)-1,6-naphthyridin-5(6H)-one], the IC50 is 0.5 to 5 nM.

Consider `O=c1[nH]c(C2=C[C@H](N3CCN(c4ccc(C(F)(F)F)cc4)CC3)CC2)cc2ncccc12` [Compound 33, (R)-7-(3-(4-(4-(trifluoromethyl)phenyl)piperazin-1-yl)cyclopent-1-en-1-yl)-1,6-naphthyridin-5(6H)-one], for which the IC50 was in the range of 5.1 to 50 nM.

The values above are taken from US20200101068A1, “Heteroaryl Derivatives as PARP Inhibitors” (Lupin Limited, priority 2015, published 2020).
